Measured values reported in the CheMixHub viscosity set.
Several values for one entry are separate records, joined by “and”; a condition that tells them apart may be missing. Equal values may be shown once.

Columns and labels:
[1] = xn = mol fraction of the nth substance listed

CC(C)[O-].CC(C)[O-].CC(C)[O-].CC(C)[O-].[Ti+4]
101.3 kPa
Settings	viscosity [mPa·s]
293.15 K	3.144
303.15 K	1.845
313.15 K	1.279
323.15 K	1.003

CC1CCCCC1O (centres undefined)
viscosity [mPa·s]
Settings	293.15 K	298.15 K	303.15 K	308.15 K	313.15 K
100 kPa	38.6	26.99	18.91	13.95	10.53
101 kPa	21.7	–	–	–	–

CCC(C)(O)CC
Settings	viscosity
298.15 K, 101.33 kPa	3.918 mPa·s and 3.918 mPa·s

CCCC(C)=O
Settings	viscosity
293.15 K, 101 kPa	0.506 mPa·s
298.15 K, 101 kPa	0.463 mPa·s and 0.4591 mPa·s and 0.4673 mPa·s
303.15 K, 100 kPa	0.435 mPa·s
303.15 K, 101 kPa	0.437 mPa·s and 0.435 mPa·s
303.15 K, 101.32 kPa	0.466 mPa·s
303.15 K, 101.33 kPa	0.456 mPa·s
308.15 K, 100 kPa	0.422 mPa·s
308.15 K, 101 kPa	0.413 mPa·s and 0.422 mPa·s and 0.4197 mPa·s
313.15 K, 100 kPa	0.409 mPa·s
313.15 K, 101 kPa	0.405 mPa·s
318.15 K, 101 kPa	0.3782 mPa·s
323.15 K, 101 kPa	0.3584 mPa·s

CCCCCCCC(=O)[O-].CC[NH+](C(C)C)C(C)C
Settings	viscosity [mPa·s]
298.15 K, 101.3 kPa	13.52

CCCCCCCCCCCCCC[P+](CCCCCC)(CCCCCC)CCCCCC.O=S(=O)([N-]S(=O)(=O)C(F)(F)F)C(F)(F)F
Settings	viscosity [mPa·s]
313.15 K, 101 kPa	150

CCCC[n+]1ccccc1.N#C[N-]C#N
101 kPa
Settings	viscosity [mPa·s]
293.15 K	41.05
298.15 K	33.27
303.15 K	27.62
308.15 K	22.9
313.15 K	19.3
318.15 K	16.73
323.15 K	14.44

CCCOC(C)=O
viscosity
Settings	293.15 K	298.15 K	303.15 K	308.15 K	313.15 K	318.15 K
101 kPa	0.591 mPa·s	0.56 mPa·s and 0.553 mPa·s and 0.562 mPa·s	0.525 mPa·s	0.487 mPa·s and 0.488 mPa·s	0.462 mPa·s and 0.451 mPa·s	0.439 mPa·s
101.33 kPa	–	0.563 mPa·s	0.524 mPa·s and 0.512 mPa·s	0.489 mPa·s and 0.483 mPa·s	–	–

CCN(CC)CC
Settings	viscosity
293.15 K, 100 kPa	0.3608 mPa·s
293.15 K, 101 kPa	0.369 mPa·s
297.85 K, 101 kPa	0.352 mPa·s
298 K, 101.33 kPa	0.35 mPa·s
298.15 K, 100 kPa	0.353 mPa·s and 0.3534 mPa·s (2×)
298.15 K, 101 kPa	0.344 mPa·s
302.85 K, 101 kPa	0.335 mPa·s
303.15 K, 100 kPa	0.339 mPa·s and 0.3387 mPa·s (2×)
303.15 K, 101 kPa	0.333 mPa·s
303.15 K, 101.33 kPa	0.3592 mPa·s and 0.3592 mPa·s
307.85 K, 101 kPa	0.319 mPa·s
308.15 K, 100 kPa	0.322 mPa·s and 0.3221 mPa·s (2×)
312.95 K, 101 kPa	0.304 mPa·s
313.15 K, 101 kPa	0.302 mPa·s
313.15 K, 101.33 kPa	0.3249 mPa·s and 0.3249 mPa·s
317.75 K, 101 kPa	0.291 mPa·s
322.75 K, 101 kPa	0.278 mPa·s
323.15 K, 101 kPa	0.275 mPa·s

CCOC(=O)c1ccccc1O
Settings	viscosity [mPa·s]
303.15 K, 101 kPa	3.117

CC[N+](C)(CC)CCOC.F[B-](F)(F)F
101 kPa
Settings	viscosity [mPa·s]
293.15 K	228.1
298.15 K	178.6
303.15 K	140.4
308.15 K	111.4
313.15 K	89.27
318.15 K	70.53
323.15 K	57.55

CC[n+]1ccn(C)c1.N#C[N-]C#N
viscosity
Settings	298.15 K	303.15 K	308.15 K	313.15 K	318.15 K	323.15 K
100 kPa	14.78 mPa·s and 13.09 mPa·s	12.88 mPa·s and 11.39 mPa·s	11.3 mPa·s and 10 mPa·s	9.759 mPa·s and 8.86 mPa·s	8.929 mPa·s and 7.92 mPa·s	8.01 mPa·s and 7.13 mPa·s
101 kPa	14.9 mPa·s and 17.4 mPa·s	–	–	10.07 mPa·s	–	–

CCn1cc[n+](C)c1.O=C([O-])[C@@H]1CCCN1
101 kPa
Settings	viscosity [mPa·s]
298.15 K	1195
303.15 K	771.5

ClC(Cl)(Cl)Cl
Settings	viscosity
293.15 K, 101 kPa	0.95 mPa·s and 0.9826 mPa·s
298 K, 101 kPa	0.9128 mPa·s
298 K, 101.3 kPa	0.892 mPa·s
298 K, 101.33 kPa	0.899 mPa·s
298.15 K, 100 kPa	0.9062 mPa·s and 0.897 mPa·s
298.15 K, 101.32 kPa	0.902 mPa·s and 0.902 mPa·s
298.16 K, 101 kPa	0.907 mPa·s
301.85 K, 101 kPa	0.9088 mPa·s
303 K, 101.33 kPa	0.8371 mPa·s and 0.838 mPa·s
303.15 K, 100 kPa	0.845 mPa·s and 0.838 mPa·s
303.15 K, 101.3 kPa	0.8427 mPa·s and 0.8427 mPa·s
303.15 K, 101.33 kPa	0.845 mPa·s and 0.845 mPa·s and 0.768 mPa·s
308 K, 101 kPa	0.7888 mPa·s
308.15 K, 100 kPa	0.7897 mPa·s and 0.784 mPa·s
308.15 K, 101.33 kPa	0.717 mPa·s
312.15 K, 101 kPa	0.7815 mPa·s
313 K, 101.33 kPa	0.7436 mPa·s and 0.735 mPa·s
313.15 K, 100 kPa	0.7394 mPa·s and 0.734 mPa·s
313.15 K, 101.33 kPa	0.739 mPa·s and 0.7392 mPa·s
318 K, 101 kPa	0.6788 mPa·s
318 K, 101.3 kPa	0.7444 mPa·s and 0.7449 mPa·s
318 K, 101.33 kPa	0.7449 mPa·s
318.15 K, 100 kPa	0.689 mPa·s
323 K, 101.33 kPa	0.6566 mPa·s and 0.653 mPa·s
323.15 K, 101 kPa	0.712 mPa·s
323.15 K, 101.33 kPa	0.6543 mPa·s

CCN(CC)CC + OCCO
[1], 101 kPa
Settings	viscosity [mPa·s]
296.95 K, x1 = 0.143	16.28
297.85 K, x1 = 0.268	9.85
297.85 K, x1 = 0.514	2.7
297.85 K, x1 = 0.789	0.704
301.85 K, x1 = 0.143	13.5
302.85 K, x1 = 0.268	7.9
302.85 K, x1 = 0.789	0.644
306.45 K, x1 = 0.143	11.7
307.85 K, x1 = 0.268	6.79
307.85 K, x1 = 0.514	2.05
307.85 K, x1 = 0.789	0.589
312.95 K, x1 = 0.268	5.7
312.95 K, x1 = 0.514	1.79
312.95 K, x1 = 0.789	0.543
313.45 K, x1 = 0.143	9.46
317.75 K, x1 = 0.268	4.91
317.75 K, x1 = 0.514	1.61
317.75 K, x1 = 0.789	0.514
320.45 K, x1 = 0.143	7.64
322.75 K, x1 = 0.268	4.18
322.75 K, x1 = 0.514	1.45

CC1CCCCC1O (centres undefined) + c1ccccc1
[1], 293.15 K, 101 kPa
Settings	viscosity
x2 = 0.33	3.2 mPa·s
x2 = 0.5	1.8 mPa·s
x2 = 0.6	1.5 mPa·s
x2 = 0.7	1.3 mPa·s
x2 = 0.8	1.1 mPa·s and 1 mPa·s

CCCC(C)=O + c1ccccc1
[1], 303.15 K, 101.32 kPa
Settings	viscosity [mPa·s]
x2 = 0.1304	0.469
x2 = 0.2771	0.475
x2 = 0.3294	0.484
x2 = 0.4869	0.499
x2 = 0.6257	0.515
x2 = 0.6946	0.522
x2 = 0.7707	0.532
x2 = 0.9042	0.553

CCCOC(C)=O + c1ccccc1
[1]
Settings	viscosity [mPa·s]
298.15 K, 101.3 kPa, x2 = 0.246	0.537
298.15 K, 101.3 kPa, x2 = 0.4714	0.537
298.15 K, 101.3 kPa, x2 = 0.6809	0.551
298.15 K, 101.3 kPa, x2 = 0.8404	0.563
303.15 K, 101.33 kPa, x2 = 0.0633	0.514
303.15 K, 101.33 kPa, x2 = 0.1259	0.515
303.15 K, 101.33 kPa, x2 = 0.1865	0.513
303.15 K, 101.33 kPa, x2 = 0.3006	0.512
303.15 K, 101.33 kPa, x2 = 0.4062	0.513
303.15 K, 101.33 kPa, x2 = 0.5133	0.514
303.15 K, 101.33 kPa, x2 = 0.6141	0.517
303.15 K, 101.33 kPa, x2 = 0.7078	0.524
303.15 K, 101.33 kPa, x2 = 0.7972	0.529
303.15 K, 101.33 kPa, x2 = 0.8812	0.539
303.15 K, 101.33 kPa, x2 = 0.9631	0.551
308.15 K, 101.3 kPa, x2 = 0.246	0.477
308.15 K, 101.3 kPa, x2 = 0.4714	0.48
308.15 K, 101.3 kPa, x2 = 0.8404	0.49
313.15 K, 101.33 kPa, x2 = 0.1951	0.448
313.15 K, 101.33 kPa, x2 = 0.4024	0.449
313.15 K, 101.33 kPa, x2 = 0.5082	0.453
313.15 K, 101.33 kPa, x2 = 0.6029	0.455
313.15 K, 101.33 kPa, x2 = 0.8029	0.466

CCN(CC)CC + c1ccccc1
[1], 303.15 K, 101 kPa
Settings	viscosity [mPa·s]
x1 = 0.01024	0.5567
x1 = 0.02091	0.5513
x1 = 0.03113	0.545
x1 = 0.03955	0.5386
x1 = 0.05006	0.5341
x1 = 0.06182	0.5287
x1 = 0.07124	0.5215
x1 = 0.08041	0.5162
x1 = 0.09192	0.5096
x1 = 0.09995	0.5041

ClC(Cl)(Cl)Cl + c1ccncc1
[1], 298.15 K, 101 kPa
Settings	viscosity [mPa·s]
x1 = 0.09	0.9206
x1 = 0.1492	0.9404
x1 = 0.2381	0.9623
x1 = 0.293	0.9729
x1 = 0.37	0.9819
x1 = 0.4337	0.9847
x1 = 0.4561	0.9841
x1 = 0.4972	0.9842
x1 = 0.6006	0.9751
x1 = 0.738	0.9538
x1 = 0.7863	0.943
x1 = 0.8636	0.9286
x1 = 0.9447	0.912

Oc1nc(O)nc(O)n1 + c1ccncc1
Settings	viscosity [mPa·s]
[1], 298.15 K, 101 kPa, x1 = 0.0199	1.038
